# Where two headings read alike, the source gives them in different places.
# What was measured:
# [1] = target: CYP2D6 (Homo sapiens, UniProt P10635); test: Inhibition of CYP2D6-mediated bufuralol 1′-hydroxylase in ultrapooled human liver microsomes; format: in vitro ADME
# Experimental: The inhibitory potentials (IC50 values) of APINACA and typical CYP inhibitors on CYP 1A2, 2A6, 2C8, 2C9, 2C19, 2D6, and 3A4 activities in pooled human liver microsomes were evaluated following our previous method using a cocktail of CYP substrates, followed by LC–MS/MS [43]. […] After 3 min of preincubation at 37 °C, the reaction mixtures were incubated for 15 min at 37 °C with the addition of NADPH in a shaking water bath. The reaction was stopped by adding 100 μL of ice cold methanol containing internal standards (d9-1′-hydroxybufuralol for 1′-hydroxybufuralol, 4′-hydroxydiclofenac, 7-hydroxycoumarin, 1′-hydroxymidazolam, and 4′-hydroxymephenytoin; ^13C2, ^15N-acetaminophen for acetaminophen and N-desethylamodiaquine). The incubation mixtures were centrifuged at 13,000× g for 8 min at 4 °C, and 50 μL of each supernatant was diluted with 50 μL of water. Aliquots (5 μL) of the diluted supernatants were analyzed by LC–MS/MS. All assays were performed in triplicate, and the average values were used for subsequent calculations.
# To measure the time-dependent inhibition, human liver microsomes were preincubated with the various concentrations of APINACA (final concentrations of 0.1−100 μM) and NADPH for 30 min at 37 °C. Next, the reaction mixtures were incubated with a seven-CYP probe substrate cocktail or bupropion for 15 min at 37 °C. […]
# [2] = blood samples of three driving under the influence of drugs cases; cited from earlier work
# [3] = target: UGT1A3 (Homo sapiens, UniProt P35503); test: Inhibition of UGT1A3-catalyzed chenodeoxycholic acid 24-acyl-β-glucuronidation in human liver microsomes; format: in vitro ADME
# Chain of UGT1A3 (P35503 29-534): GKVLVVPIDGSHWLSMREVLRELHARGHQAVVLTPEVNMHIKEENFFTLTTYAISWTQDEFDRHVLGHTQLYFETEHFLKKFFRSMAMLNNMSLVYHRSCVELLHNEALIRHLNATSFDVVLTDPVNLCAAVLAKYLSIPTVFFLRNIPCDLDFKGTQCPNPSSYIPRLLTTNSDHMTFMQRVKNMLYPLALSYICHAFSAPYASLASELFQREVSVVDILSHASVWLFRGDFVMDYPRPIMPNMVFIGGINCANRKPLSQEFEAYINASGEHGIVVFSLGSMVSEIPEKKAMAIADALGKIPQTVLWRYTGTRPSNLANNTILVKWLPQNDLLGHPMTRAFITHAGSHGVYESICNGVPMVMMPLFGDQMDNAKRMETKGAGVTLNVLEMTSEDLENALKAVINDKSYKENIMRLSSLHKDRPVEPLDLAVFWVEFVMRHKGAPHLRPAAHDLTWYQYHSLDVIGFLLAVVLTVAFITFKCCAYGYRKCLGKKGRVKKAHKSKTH
# Experimental: The inhibitory effect of APINACA and typical UGT inhibitors on UGT1A1, UGT1A3, UGT1A4, UGT1A6, UGT1A9, and UGT2B7 were evaluated following our previous method by LC–MS/MS after incubation of ultrapooled human liver microsomes with a cocktail of UGT substrates [44]. […] The reactions were initiated by adding UDPGA, and the incubation continued for 60 min at 37 °C in a shaking water bath. The reactions were terminated by adding 50 μL of ice-cold acetonitrile containing internal standards (propofol glucuronide for chenodeoxycholic acid 24-acyl-β-glucuronide and mycophenolic acid glucuronide; and meloxicam for SN-38 glucuronide, trifluoperazine glucuronide, N-acetylserotonin β-D-glucuronide, and naloxone 3-β-D-glucuronide). The incubation mixtures were centrifuged at 13,000× g for 8 min at 4 °C. Next, 50 μL of each supernatant of A and B set was mixed, and aliquots (5 μL) were analyzed by LC–MS/MS. All assays were performed in triplicate, and the average values were used in calculations.
# [4] = target: UGT1A6 (Homo sapiens, UniProt P19224); test: Inhibition of UGT1A6-catalyzed N-acetylserotonin glucuronidation in human liver microsomes
# Chain of UGT1A6 (P19224 27-532): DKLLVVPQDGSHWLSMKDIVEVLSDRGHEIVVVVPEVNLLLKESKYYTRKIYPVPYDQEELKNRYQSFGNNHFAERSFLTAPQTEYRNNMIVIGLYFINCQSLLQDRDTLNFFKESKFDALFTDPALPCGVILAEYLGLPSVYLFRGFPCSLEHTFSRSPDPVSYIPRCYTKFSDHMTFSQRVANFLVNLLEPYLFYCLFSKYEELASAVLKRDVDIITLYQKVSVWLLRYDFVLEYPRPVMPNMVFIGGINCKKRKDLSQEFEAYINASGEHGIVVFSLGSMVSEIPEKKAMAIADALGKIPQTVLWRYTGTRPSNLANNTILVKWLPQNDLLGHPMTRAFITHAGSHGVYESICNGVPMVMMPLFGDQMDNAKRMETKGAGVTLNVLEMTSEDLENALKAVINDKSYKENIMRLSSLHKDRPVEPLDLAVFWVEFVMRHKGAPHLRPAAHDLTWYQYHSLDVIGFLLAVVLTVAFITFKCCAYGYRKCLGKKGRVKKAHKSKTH
# Experimental: The inhibitory effect of APINACA and typical UGT inhibitors on UGT1A1, UGT1A3, UGT1A4, UGT1A6, UGT1A9, and UGT2B7 were evaluated following our previous method by LC–MS/MS after incubation of ultrapooled human liver microsomes with a cocktail of UGT substrates. […] The reactions were initiated by adding UDPGA, and the incubation continued for 60 min at 37 °C in a shaking water bath. The reactions were terminated by adding 50 μL of ice-cold acetonitrile containing internal standards (propofol glucuronide for chenodeoxycholic acid 24-acyl-β-glucuronide and mycophenolic acid glucuronide; and meloxicam for SN-38 glucuronide, trifluoperazine glucuronide, N-acetylserotonin β-D-glucuronide, and naloxone 3-β-D-glucuronide). The incubation mixtures were centrifuged at 13,000× g for 8 min at 4 °C. Next, 50 μL of each supernatant of A and B set was mixed, and aliquots (5 μL) were analyzed by LC–MS/MS. All assays were performed in triplicate, and the average values were used in calculations.
# To measure the time-dependent inhibition, human liver microsomes were preincubated with the various concentrations of APINACA (final concentrations of 0.1–100 μM) and UDPGA for 30 min at 37 °C. Next, the reaction mixtures were incubated with UGT probe substrate cocktail sets for 60 min at 37 °C. The control reaction was performed by adding methanol instead of the test compounds.
# 1.1 (Systat Software, Inc.).
# Chain of CYP2D6 (P10635 whole entry): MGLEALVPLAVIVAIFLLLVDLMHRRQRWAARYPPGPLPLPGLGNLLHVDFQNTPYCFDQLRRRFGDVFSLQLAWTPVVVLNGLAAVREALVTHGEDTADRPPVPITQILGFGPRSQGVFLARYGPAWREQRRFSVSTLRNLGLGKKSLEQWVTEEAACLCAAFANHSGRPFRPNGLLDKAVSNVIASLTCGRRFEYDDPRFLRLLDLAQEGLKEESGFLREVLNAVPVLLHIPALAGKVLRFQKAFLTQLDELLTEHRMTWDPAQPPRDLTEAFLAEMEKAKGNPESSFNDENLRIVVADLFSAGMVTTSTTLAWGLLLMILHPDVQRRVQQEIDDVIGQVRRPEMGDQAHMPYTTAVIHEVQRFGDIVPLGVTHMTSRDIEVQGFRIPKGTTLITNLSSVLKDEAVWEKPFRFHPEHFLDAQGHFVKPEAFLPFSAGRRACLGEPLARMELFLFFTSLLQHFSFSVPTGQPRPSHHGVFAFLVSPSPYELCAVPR
smiles,measurement,setting,value
"CCCCCn1nc(C(=O)NC23CC4CC(CC(C4)C2)C3)c2ccccc21 [APINACA, N-(1-adamantyl)-1-pentyl-1H-indazole-3-carboxamide]",IC50,[1],> 100 µM
same,IC50,"[1]; read-out: IC50 (μM) With Preincubation, CYP2D6 bufuralol 1′-hydroxylase, ultrapooled human liver microsomes, 30-min preincubation with NADPH",> 100 µM
same,blood concentrations,[2],0.66 to 67.1 nM
same,IC50,[3],> 100 µM
same,IC50,"[3]; read-out: IC50 UGT1A3 chenodeoxycholic acid glucuronidation, with 30-min preincubation, pooled human liver microsomes, 30-min preincubation with UDPGA (○)",> 100 µM
same,IC50,[4],> 100 µM
same,IC50,"[4]; read-out: IC50 UGT1A6 N-acetylserotonin glucuronidation, with 30-min preincubation, pooled human liver microsomes, 30-min preincubation with UDPGA (○)",> 100 µM

# Source: PMC6720883, “In Vitro Inhibitory Effects of APINACA on Human Major Cytochrome P450, UDP-Glucuronosyltransferase Enzymes, and Drug Transporters” (Molecules, 2019)
